# Test results published in patent US10081624B2, “Heterocyclic compound” (Takeda Pharmaceutical Company Limited, priority 2014, dated 2018).
# Columns and labels:
# HDAC1 enzyme = target: T1, HDAC1 enzyme (Homo sapiens, UniProt Q13547); experiment: HDAC1 enzyme inhibitory assay (HDAC-Glo I/II Assay kit); format: biochemical; conditions: 1 μM test compound; read-out: HDAC1 inhibitory rate (%) (1 μM)
# T1 construct: prepared by transducing full length HDAC1 and HDAC6 genes into Sf-9 insect cells; GST; purchased SignalChem; host or cells: Sf-9 insect cells
# How it was run: (§1)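 Luminescence read-out: 20 min after adding HDAC-Glo substrate-developer at room temperature. Before that, compound and Sf-9-expressed, GST-purified full-length HDAC1 or HDAC6 sat together 60 min in pH 7.5 Tris buffer. Inhibition is relative to no-enzyme wells taken as 100%.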
# HDAC6 enzyme = target: T2, HDAC6 enzyme (Homo sapiens, UniProt Q9UBN7); experiment: HDAC6 enzyme inhibitory assay (HDAC-Glo I/II Assay kit); format: biochemical; conditions: 1 μM test compound; read-out: HDAC6 inhibitory rate (%) (1 μM)
# T2 construct: prepared by transducing full length HDAC1 and HDAC6 genes into Sf-9 insect cells; GST; purchased SignalChem; host or cells: Sf-9 insect cells
# T2 sequence (Q9UBN7 1-1215): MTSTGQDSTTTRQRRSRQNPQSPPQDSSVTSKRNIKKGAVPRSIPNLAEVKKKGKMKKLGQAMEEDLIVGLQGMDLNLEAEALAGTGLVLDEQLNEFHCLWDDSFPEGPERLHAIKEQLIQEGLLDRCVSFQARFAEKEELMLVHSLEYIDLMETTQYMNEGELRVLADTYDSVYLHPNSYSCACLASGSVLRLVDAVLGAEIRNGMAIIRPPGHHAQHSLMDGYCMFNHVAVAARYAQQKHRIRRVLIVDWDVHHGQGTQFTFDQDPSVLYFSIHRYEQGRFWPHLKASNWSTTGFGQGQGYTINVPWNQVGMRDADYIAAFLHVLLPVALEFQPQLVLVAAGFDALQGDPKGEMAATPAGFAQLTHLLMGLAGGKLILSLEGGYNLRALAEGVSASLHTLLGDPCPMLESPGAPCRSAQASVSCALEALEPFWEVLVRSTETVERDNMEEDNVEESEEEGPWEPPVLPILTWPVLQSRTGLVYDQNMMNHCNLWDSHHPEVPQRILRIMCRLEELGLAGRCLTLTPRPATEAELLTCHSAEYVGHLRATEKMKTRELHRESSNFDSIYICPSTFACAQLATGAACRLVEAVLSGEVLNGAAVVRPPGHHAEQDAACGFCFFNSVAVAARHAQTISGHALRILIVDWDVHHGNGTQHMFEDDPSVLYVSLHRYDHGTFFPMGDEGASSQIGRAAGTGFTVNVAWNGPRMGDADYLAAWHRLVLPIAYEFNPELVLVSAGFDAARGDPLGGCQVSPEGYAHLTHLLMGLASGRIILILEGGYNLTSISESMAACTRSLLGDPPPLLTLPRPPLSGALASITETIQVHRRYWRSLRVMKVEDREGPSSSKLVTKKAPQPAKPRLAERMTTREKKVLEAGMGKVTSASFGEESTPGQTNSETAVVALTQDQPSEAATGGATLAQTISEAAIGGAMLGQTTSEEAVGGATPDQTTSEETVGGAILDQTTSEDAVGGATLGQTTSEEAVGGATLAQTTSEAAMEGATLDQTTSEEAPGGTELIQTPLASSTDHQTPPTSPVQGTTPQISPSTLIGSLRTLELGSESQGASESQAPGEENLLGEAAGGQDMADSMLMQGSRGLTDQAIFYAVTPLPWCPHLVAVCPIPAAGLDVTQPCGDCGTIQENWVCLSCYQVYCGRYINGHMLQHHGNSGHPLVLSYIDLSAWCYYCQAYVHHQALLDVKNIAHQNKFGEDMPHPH
# How it was run: as §1
# T1 sequence (Q13547 whole entry): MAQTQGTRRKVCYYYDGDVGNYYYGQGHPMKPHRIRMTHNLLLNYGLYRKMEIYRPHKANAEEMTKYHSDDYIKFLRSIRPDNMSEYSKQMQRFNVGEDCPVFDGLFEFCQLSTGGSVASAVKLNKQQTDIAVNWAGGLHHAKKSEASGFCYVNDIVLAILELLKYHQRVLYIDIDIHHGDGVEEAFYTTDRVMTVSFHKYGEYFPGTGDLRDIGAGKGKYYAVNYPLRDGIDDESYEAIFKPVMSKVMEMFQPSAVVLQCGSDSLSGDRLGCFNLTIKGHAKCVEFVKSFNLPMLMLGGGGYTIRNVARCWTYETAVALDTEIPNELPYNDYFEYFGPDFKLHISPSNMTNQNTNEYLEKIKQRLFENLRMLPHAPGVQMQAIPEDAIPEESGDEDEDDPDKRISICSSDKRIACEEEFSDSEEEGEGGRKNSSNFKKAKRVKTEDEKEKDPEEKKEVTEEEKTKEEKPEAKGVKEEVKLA
inhibition at 1 µM (HDAC1 enzyme),inhibition at 1 µM (HDAC6 enzyme),Compound
16%,97%,"O=C(NC[C@H]1COCCN1C(=O)C1(c2ccccc2)CC1)c1ccc(-c2noc(C(F)(F)F)n2)cc1 [Example 56, N-(((3S)-4-((1-phenylcyclopropyl)carbonyl)morpholin-3-yl)methyl)-4-(5-(trifluoromethyl)-1,2,4-oxadiazol-3-yl)benzamide]"
22%,101%,"Cc1oncc1C(=O)N1CCOC[C@@H]1CNC(=O)c1ccc(-c2noc(C(F)(F)F)n2)cc1 [Example 59, N-(((3S)-4-((5-methyl-1,2-oxazol-4-yl)carbonyl)morpholin-3-yl)methyl)-4-(5-(trifluoromethyl)-1,2,4-oxadiazol-3-yl)benzamide]"
27%,98%,"Cc1nonc1C(=O)N1CCOC[C@@H]1CNC(=O)c1ccc(-c2noc(C(F)(F)F)n2)cc1 [Example 60, N-(((3S)-4-((4-methyl-1,2,5-oxadiazol-3-yl)carbonyl)morpholin-3-yl)methyl)-4-(5-(trifluoromethyl)-1,2,4-oxadiazol-3-yl)benzamide]"
10%,97%,"O=C(NC[C@H]1COCCN1C(=O)c1ccno1)c1ccc(-c2noc(C(F)(F)F)n2)cc1 [Example 61, N-(((3S)-4-(1,2-oxazol-5-ylcarbonyl)morpholin-3-yl)methyl)-4-(5-(trrfluoromethyl)-1,2,4-oxadiazol-3-yl)benzamide]"
14%,97%,"Cc1cc(C(=O)N2CCOC[C@@H]2CNC(=O)c2ccc(-c3noc(C(F)(F)F)n3)cc2)n(C)n1 [Example 63, N-(((3S)-4-((1,3-dimethyl-1H-pyrazol-5-yl)carbonyl)morpholin-3-yl)methyl)-4-(5-(trifluoromethyl)-1,2,4-oxadiazol-3-yl)benzamide]"
17%,93%,"Cn1nc(C(F)(F)F)cc1C(=O)N1CCOC[C@@H]1CNC(=O)c1ccc(-c2noc(C(F)(F)F)n2)cc1 [Example 64, N-(((3S)-4-((1-methyl-3-(trifluoromethyl)-1H-pyrazol-5-yl)carbonyl)morpholin-3-yl)methyl)-4-(5-(trifluoromethyl)-1,2,4-oxadiazol-3-yl)benzamide]"
5%,95%,"Cc1nn(C)c(C)c1C(=O)N1CCOC[C@@H]1CNC(=O)c1ccc(-c2noc(C(F)(F)F)n2)cc1 [Example 67, 4-(5-(trifluoromethyl)-1,2,4-oxadiazol-3-yl)-N-(((3S)-4-((1,3,5-trimethyl-1H-pyrazol-4-yl)carbonyl)morpholin-3-yl)methyl)benzamide]"
32%,101%,"Cc1nnsc1C(=O)N1CCOC[C@@H]1CNC(=O)c1ccc(-c2noc(C(F)(F)F)n2)cc1 [Example 68, N-(((3S)-4-((4-methyl-1,2,3-thiadiazol-5-yl)carbonyl)morpholin-3-yl)methyl)-4-(5-(trifluoromethyl)-1,2,4-oxadiazol-3-yl)benzamide]"
16%,100%,"Cc1ncsc1C(=O)N1CCOC[C@@H]1CNC(=O)c1ccc(-c2noc(C(F)(F)F)n2)cc1 [Example 69, N-(((3S)-4-((4-methyl-1,3-thiazol-5-yl)carbonyl)morpholin-3-yl)methyl)-4-(5-(trifluoromethyl)-1,2,4-oxadiazol-3-yl)benzamide]"
5%,95%,"O=C(NC[C@H]1COCCN1C(=O)c1csnn1)c1ccc(-c2noc(C(F)(F)F)n2)cc1 [Example 70, N-(((3S)-4-(1,2,3-thiadiazol-4-ylcarbonyl)morpholin-3-yl)methyl)-4-(5-(trifluoromethyl)-1,2,4-oxadiazol-3-yl)benzamide]"
18%,100%,"Cc1ccsc1C(=O)N1CCOC[C@@H]1CNC(=O)c1ccc(-c2noc(C(F)(F)F)n2)cc1 [Example 74, N-(((3S)-4-((3-methyl-2-thienyl)carbonyl)morpholin-3-yl)methyl)-4-(5-(trifluoromethyl)-1,2,4-oxadiazol-3-yl)benzamide]"
18%,98%,"O=C(NC[C@H]1COCCN1C(=O)C1CCCC1)c1ccc(-c2noc(C(F)(F)F)n2)cc1 [Example 77, N-(((3S)-4-(cyclopentylcarbonyl)morpholin-3-yl)methyl)-4-(5-(trifluoromethyl)-1,2,4-oxadiazol-3-yl)benzamide]"
15%,98%,"O=C(NC[C@H]1COCCN1C(=O)C1CCCCC1)c1ccc(-c2noc(C(F)(F)F)n2)cc1 [Example 80, N-(((3S)-4-(cyclohexylcarbonyl)morpholin-3-yl)methyl)-4-(5-(trifluoromethyl)-1,2,4-oxadiazol-3-yl)benzamide]"
60%,101%,"Cn1nc2ccccc2c1C(=O)N1CCOC[C@@H]1CNC(=O)c1ccc(-c2noc(C(F)(F)F)n2)cc1 [Example 82, N-(((3S)-4-((2-methyl-2H-indazol-3-yl)carbonyl)morpholin-3-yl)methyl)-4-(5-(trifluoromethyl)-1,2,4-oxadiazol-3-yl)benzamide]"
4%,15%,"O=C(NC[C@H]1COCCN1C(=O)Cn1cnccc1=O)c1ccc(-c2noc(C(F)(F)F)n2)cc1 [Example 83, N-(((3S)-4-((6-oxopyrimidin-1(6H)-yl)acetyl)morpholin-3-yl)methyl)-4-(5-(trifluoromethyl)-1,2,4-oxadiazol-3-yl)benzamide]"
53%,98%,"CC(C)n1nccc1C(=O)N1CCOC[C@@H]1CNC(=O)c1ccc(-c2noc(C(F)(F)F)n2)cc1 [Example 84, N-(((3S)-4-((1-isopropyl-1H-pyrazol-5-yl)carbonyl)morpholin-3-yl)methyl)-4-(5-(trifluoromethyl)-1,2,4-oxadiazol-3-yl)benzamide]"
15%,96%,"Cn1cc2c(C(=O)N3CCOC[C@@H]3CNC(=O)c3ccc(-c4noc(C(F)(F)F)n4)cc3)cccc2n1 [Example 85, N-(((3S)-4-((2-methyl-2H-indazol-4-yl)carbonyl)morpholin-3-yl)methyl)-4-(5-(trifluoromethyl)-1,2,4-oxadiazol-3-yl)benzamide]"
24%,98%,"N#Cc1cc(Cl)cc(C(=O)N2CCOC[C@@H]2CNC(=O)c2ccc(-c3noc(C(F)(F)F)n3)cc2)c1 [Example 86, N-(((3S)-4-(3-chloro-5-cyanobenzoyl)morpholin-3-yl)methyl)-4-(5-(trifluoromethyl)-1,2,4-oxadiazol-3-yl)benzamide]"
29%,98%,"Cc1cc(C#N)ccc1C(=O)N1CCOC[C@@H]1CNC(=O)c1ccc(-c2noc(C(F)(F)F)n2)cc1 [Example 87, N-(((3S)-4-(4-cyano-2-methylbenzoyl)morpholin-3-yl)methyl)-4-(5-(trifluoromethyl)-1,2,4-oxadiazol-3-yl)benzamide]"
38%,100%,"Cc1noc(C)c1C(=O)N1CCOC[C@@H]1CNC(=O)c1ccc(-c2noc(C(F)(F)F)n2)cc1 [Example 88, N-(((3S)-4-((3,5-dimethyl-1,2-oxazol-4-yl)carbonyl)morpholin-3-yl)methyl)-4-(5-(trifluoromethyl)-1,2,4-oxadiazol-3-yl)benzamide]"
12%,98%,"O=C(NC[C@H]1COCCN1C(=O)N1CCCCC1)c1ccc(-c2noc(C(F)(F)F)n2)cc1 [Example 89, N-(((3S)-4-(piperidin-1-ylcarbonyl)morpholin-3-yl)methyl)-4-(5-(trifluoromethyl)-1,2,4-oxadiazol-3-yl)benzamide]"
29%,97%,"Cn1nc2ccccc2c1C(=O)N1CCOC[C@@H]1CC(=O)Nc1ccc(-c2noc(C(F)(F)F)n2)cc1 [Example 90, 2-((3S)-4-((2-methyl-2H-indazol-3-yl)carbonyl)morpholin-3-yl)-N-(4-(5-(trifluoromethyl)-1,2,4-oxadiazol-3-yl)phenyl)acetamide]"
